The record followed here is patent publication US10947252B2, “Inhibitors of KEAP1-Nrf2 protein-protein interaction” (Janssen Pharmaceutica NV, priority 2018, dated 2021).

Counter-ions that a name gives are not always drawn.

Experiment [1] concerns the target Kelch domain of human KEAP1 (321-624 aa) (Homo sapiens (Human), UniProt Q14145). In words: KEAP1 KELCH ThermoFluor binding assay.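 Note: Ligand-induced melting temperature shift of E. coli-expressed KEAP1 Kelch protein, Kd estimated from concentration-response curves of ΔTm.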 Conditions: KEAP Kelch […], 1,8-ANS, pH 7.0, average of results obtained, read-out: Tf Kd. (Differential scanning fluorimetry follows unfolding on heating by fluorescence.)
The subject of experiment [2] is Glo-Response ARE-luc2P HEK293 cell line. The experiment can be described thus: ARE luciferase reporter cell-based assay.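 Note: luciferase signal tracks Nrf2 activation of the ARE once compounds disrupt KEAP1-Nrf2 binding, read with One-Glo reagent, DMSO serving as low control.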 The conditions noted are these: Homo sapiens, HEK293, 24 h, average of results obtained. (In general: In a reporter assay the amount or activity of a reporter protein is the signal.)

Chain of Kelch domain of human KEAP1 (321-624 aa) (Q14145 321-624): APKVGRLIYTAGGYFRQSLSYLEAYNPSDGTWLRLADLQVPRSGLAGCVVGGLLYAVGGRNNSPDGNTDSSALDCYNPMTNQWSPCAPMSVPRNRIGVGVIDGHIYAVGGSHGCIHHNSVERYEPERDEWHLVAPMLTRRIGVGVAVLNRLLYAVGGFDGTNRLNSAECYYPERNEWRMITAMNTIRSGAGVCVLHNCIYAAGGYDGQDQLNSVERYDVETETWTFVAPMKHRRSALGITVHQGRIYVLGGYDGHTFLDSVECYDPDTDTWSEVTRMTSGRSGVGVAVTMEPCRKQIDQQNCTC

One may read the Kd as a measure of binding affinity in units of concentration. The EC50 is the concentration needed to bring the measured effect to its halfway point. Read a high EC50 as a less potent agent. In the case of `CCn1nnc2c(C)c([C@H](c3ccc(C)c(CN4CC5(CCOCC5)Oc5ncc(C)cc5S4(=O)=O)n3)C(C)(C)C(=O)O)ccc21` (single isomer, unassigned) [Example 557, (*S)-3-(1-Ethyl-4-methyl-1H-benzo[d][1,2,3]triazol-5-yl)-2,2-dimethyl-3-(5-methyl-6-((8′-methyl-1′,1′-dioxido-2,3,5,6-tetrahydrospiro[pyran-4,4′-pyrido[2,3-b][1,4,5]oxathiazepin]-2′(3′H)-yl)methyl)pyridin-2-yl)propanoic Acid], in experiment [1], the Kd was less than 1 nM. This molecule also yielded an EC50 in experiment [2] of 0.56 nM.
The matching figures for `Cc1ccc([C@@H](CC(=O)O)c2ccc3c(nnn3C3CC3)c2C)cc1CN1CC2(CC2)N(C)c2ncccc2S1(=O)=O` (single isomer, unassigned) [Example 226, (*R)-3-(1-Cyclopropyl-4-methyl-1H-benzo[d][1,2,3]triazol-5-yl)-3-(4-methyl-3-((5′-methyl-1′,1′-dioxido-5′H-spiro[cyclopropane-1,4′-pyrido[2,3-f][1,2,5]thiadiazepin]-2′(3′H)-yl)methyl)phenyl)propanoic Acid]: 6 nM and 160 nM.
Taken in the same sequence, the figures for `Cc1ccc([C@H](CC(=O)O)c2ccn3c(C(F)(F)F)nnc3c2C)cc1CN1C[C@H]2CN(C)CCN2c2ncccc2S1(=O)=O` (single isomer, unassigned) [Example 181, (*S)-3-(4-Methyl-3-(((*R)-9-methyl-5,5-dioxido-7,7a,8,9,10,11-hexahydro-6H-pyrazino[2,1-d]pyrido[2,3-f][1,2,5]thiadiazepin-6-yl)methyl)phenyl)-3-(8-methyl-3-(trifluoromethyl)-[1,2,4]triazolo[4,3-a]pyridin-7-yl)propanoic Acid] were 110 nM and 1110 nM.
The matching figures for `Cc1ccc(C(CC(=O)O)c2ccn3c(C(F)(F)F)nnc3c2C)nc1CN1CC2(CC2)Oc2ncccc2S1(=O)=O` (racemic) [Example 481, (R/S)-3-(6-((1′,1′-Dioxidospiro[cyclopropane-1,4′-pyrido[2,3-b][1,4,5]oxathiazepin]-2′(3′H)-yl)methyl)-5-methylpyridin-2-yl)-3-(8-methyl-3-(trifluoromethyl)-[1,2,4]triazolo[4,3-a]pyridin-7-yl)propanoic Acid]: less than 1 nM and 1290 nM.
Consider `Cc1ccc([C@H](c2ccn3c(C(F)(F)F)nnc3c2C)C(C)(C)C(=O)O)cc1CN1CC(C)(C)Oc2ncccc2S1(=O)=O` (single isomer, unassigned) [Example 431, (*R)-3-(3-((4,4-dimethyl-1,1-dioxido-3,4-dihydro-2H-pyrido[2,3-b][1,4,5]oxathiazepin-2-yl)methyl)-4-methylphenyl)-2,2-dimethyl-3-(8-methyl-3-(trifluoromethyl)-[1,2,4]triazolo[4,3-a]pyridin-7-yl)propanoic Acid], for which the Kd in experiment [1] was less than 1 nM. In experiment [2], this molecule showed an EC50 of 2.84 nM.
Taken in the same sequence, the figures for `Cc1ccc([C@H](c2ccn3c(C(F)(F)F)nnc3c2C)C(C)(C)C(=O)O)cc1CN1CC2(CCOCC2)Oc2nc(N[C@@H](C)CCO)ccc2S1(=O)=O` (single isomer, unassigned) [Example 122, (*R)-3-(3-((7′-(((S)-4-Hydroxybutan-2-yl)amino)-1′,1′-dioxido-2,3,5,6-tetrahydrospiro[pyran-4,4′-pyrido[2,3-b][1,4,5]oxathiazepin]-2′(3′H)-yl)methyl)-4-methylphenyl)-2,2-dimethyl-3-(8-methyl-3-(trifluoromethyl)-[1,2,4[triazolo[4,3-a]pyridine-7-yl)propanoic Acid] were 8930 nM and 13000 nM.
Taken in the same sequence, the figures for `Cc1ccc([C@H](c2ccn3c(C(F)(F)F)nnc3c2)C(C)(C)C(=O)O)cc1CN1CC2(CCOCC2)Oc2ncccc2S1(=O)=O` (single isomer, unassigned) [Example 321, (*R)-3-(3-((1′,1′-Dioxido-2,3,5,6-tetrahydrospiro[pyran-4,4′-pyrido[2,3-b][1,4,5]oxathiazepin]-2′(3′H)-yl)methyl)-4-methylphenyl)-2,2-dimethyl-3-(3-(trifluoromethyl)-[1,2,4]triazolo[4,3-a]pyridin-7-yl)propanoic Acid] were less than 1 nM and 22 nM.
Consider `Cc1ccc([C@H](c2ccn3c(C(F)(F)F)nnc3c2C)[C@H](C)C(=O)O)cc1CN1CC2(CC2)Oc2ncccc2S1(=O)=O` (single isomer, unassigned) [Example 554, (2S,3*R)-3-(3-(Trifluoromethyl)-8-methyl-[1,2,4]triazolo[4,3-a]pyridin-7-yl)-3-(3-((1′,1′-dioxidospiro[cyclopropane-1,4′-pyrido[2,3-b][1,4,5]oxathiazepin]-2′(3′H)-yl)methyl)-4-methylphenyl)-2-methylpropanoic Acid], for which the Kd in experiment [1] is less than 1 nM. In experiment [2], this molecule yielded an EC50 of 181 nM.
On to `CC[C@@H]1CN(Cc2cc(C(CC(=O)O)c3cc(OC(F)F)c4c(c3)nnn4C)ccc2C)S(=O)(=O)c2cccnc2O1` (mixture of isomers) [Example 249, 3-(7-(Difluoromethoxy)-1-methyl-1H-benzo[d][1,2,3]triazol-5-yl)-3-(3-(((R)-4-ethyl-1,1-dioxido-3,4-dihydro-2H-pyrido[2,3-b][1,4,5]oxathiazepin-2-yl)methyl)-4-methylphenyl)propanoic Acid and its Trifluoroacetic Acid Salt], for which the Kd in experiment [1] was less than 1 nM. The molecule further displayed an EC50 in experiment [2] of 28.6 nM.
In the case of `Cc1cnc2c(c1)S(=O)(=O)N(Cc1cc([C@@H](c3ccc4c(nnn4C4CC4)c3C)C(C)(C)C(=O)O)cnc1C)CC1(CC1)O2` (single isomer, unassigned) [Example 395, (*S)-3-(1-Cyclopropyl-4-methyl-1H-benzo[d][1,2,3]triazol-5-yl)-2,2-dimethyl-3-(6-methyl-5-((8′-methyl-1′,1′-dioxidospiro[cyclopropane-1,4′-pyrido[2,3-b][1,4,5]oxathiazepin]-2′(3′H)-yl)methyl)pyridin-3-yl)propanoic Acid], the Kd in experiment [1] was less than 1 nM. The same molecule showed an EC50 in experiment [2] of 15.7 nM.
Taken in the same sequence, the figures for `Cc1ccc([C@H](c2ccn3c(C(F)(F)F)nnc3c2C)C(C)(C)C(=O)O)nc1CN1CC2(CCOCC2)Oc2nc(OCCN3CCOCC3)ccc2S1(=O)=O` (single isomer, unassigned) [Example 326, (*R)-2,2-Dimethyl-3-(8-methyl-3-(trifluoromethyl)-[1,2,4]triazolo[4,3-a]pyridin-7-yl)-3-(5-methyl-6-((7′-(2-morpholinoethoxy)-1′,1′-dioxido-2,3,5,6-tetrahydrospiro[pyran-4,4′-pyrido[2,3-b][1,4,5]oxathiazepin]-2′(3′H)-yl)methyl)pyridin-2-yl)propanoic Acid] were 3240 nM and 4600 nM.
Regarding `Cc1ccc([C@@H](CC(=O)O)c2ccn3c(C(F)(F)F)nnc3c2C)nc1CN1C[C@@H]2CCCCN2c2ncc(C#N)cc2S1(=O)=O` (single isomer, unassigned) [Example 34, (*S)-3-(6-(((*S)-3-Cyano-5,5-dioxido-7,7a,8,9,10,11-hexahydro-6H-dipyrido[2,1-d:2′,3′-f][1,2,5]thiadiazepin-6-yl)methyl)-5-methylpyridin-2-yl)-3-(8-methyl-3-(trifluoromethyl)-[1,2,4]triazolo[4,3-a]pyridin-7-yl)propanoic Acid], the Kd in experiment [1] is less than 1 nM. In experiment [2], a half-maximal effect (EC50) was put at 119 nM.
Taken in the same sequence, the figures for `CC[C@@H]1CN(Cc2cc([C@@H](CC(=O)O)c3ccn4c(C(F)F)nnc4c3C)ccc2C)S(=O)(=O)c2cccnc2O1` (single isomer, unassigned) [Example 465, (*R)-3-(3-(Difluoromethyl)-8-methyl-[1,2,4]triazolo[4,3-a]pyridin-7-yl)-3-(3-(((R)-4-ethyl-1,1-dioxido-3,4-dihydro-2H-pyrido[2,3-b][1,4,5]oxathiazepin-2-yl)methyl)-4-methylphenyl)propanoic Acid] were less than 1 nM and 154 nM.
Take `Cc1ccc([C@H](CC(=O)O)c2ccn3c(C(F)F)nnc3c2C)cc1CN1CC2(COC2)Oc2ccccc2S1(=O)=O` (single isomer, unassigned) [Example 467, (*S)-3-(3-(Difluoromethyl)-8-methyl-[1,2,4]triazolo[4,3-a]pyridin-7-yl)-3-(3-((1,1-dioxidospiro[benzo[b][1,4,5]oxathiazepine-4,3′-oxetan]-2(3H)-yl)methyl)-4-methylphenyl)propanoic Acid]: the Kd in experiment [1] is less than 1 nM. This molecule also showed an EC50 in experiment [2] of 79.3 nM.
Taken in the same sequence, the figures for `Cc1ccc([C@H](CC(=O)O)c2ccn3c(C)nnc3c2)cc1CN1C[C@H]2CCCN2c2ncccc2S1(=O)=O` (single isomer, unassigned) [Example 163, (*S)-3-(3-(((R)-5,5-Dioxido-7a,8,9,10-tetrahydropyrido[2,3-f]pyrrolo[2,1-d][1,2,5]thiadiazepin-6(7H)-yl)methyl)-4-methylphenyl)-3-(3-methyl-[1,2,4]triazolo[4,3-a]pyridin-7-yl)propanoic Acid] were less than 1 nM and 2750 nM.
With `Cc1ccc([C@H](c2ccn3c(C(F)(F)F)nnc3c2C)C(C)(C)C(=O)O)cc1CN1CC2(CCOCC2)Oc2nc(N[C@H](C)CN3CCCCC3)c(C)cc2S1(=O)=O` (single isomer, unassigned) [Example 603, (*R)-2,2-Dimethyl-3-(4-methyl-3-((8′-methyl-1′,1′-dioxido-7′-(((*R)-1-(piperidin-1-yl)propan-2-yl)amino)-2,3,5,6-tetrahydrospiro[pyran-4,4′-pyrido[2,3-b][1,4,5]oxathiazepin]-2′(3′H)-yl)methyl)phenyl)-3-(8-methyl-3-(trifluoromethyl)-[1,2,4]triazolo[4,3-a]pyridine-7-yl)propanoic Acid], the Kd in experiment [1] is less than 1 nM. Besides, the EC50 in experiment [2] turned out to be 55 nM.
